Laboratory results taken from patent US20250059217A1, “HETEROCYCLIC COMPOUNDS AND METHODS OF PREPARATION THEREOF” (priority 2021, published 2025).
Where a name gives a salt, the structure may show the parent alone. Read-outs that look alike come from different tables or passages of the source.

Key:
5-HT2B receptor = biological target: T1, 5-HT2B receptor (Homo sapiens, UniProt P41595); assay: Serotonin receptor 5-HT2 functional assay (Gq dissociation BRET or Gq-dependent calcium flux), 5-HT2B; type: cell-based; conditions: Table 4, at least three replicate trials; for 5-HT2B BRET Eff %: efficacy relative to 4-hydroxytryptamine; for 5-HT2B BRET EC50 (nM) / EC50: relative to 4-hydroxytryptamine
T1 construct: expressed in transfected cells; host or cells: HEK293T

5-HT2A receptor = biological target: T2, 5-HT2A receptor (Homo sapiens, UniProt P28223); assay: Serotonin receptor 5-HT2 functional assay (Gq dissociation BRET or Gq-dependent calcium flux), 5-HT2A; type: cell-based; conditions: for 5-HT2A BRET Eff %: efficacy relative to 4-hydroxytryptamine
T2 construct: expressed in transfected cells; host or cells: HEK293T

5-HT2C receptor = biological target: T3, 5-HT2C receptor (Homo sapiens, UniProt P28335); assay: cell-based
T3 construct: expressed in transfected cells; host or cells: HEK293T
T3 sequence (P28335 33-458): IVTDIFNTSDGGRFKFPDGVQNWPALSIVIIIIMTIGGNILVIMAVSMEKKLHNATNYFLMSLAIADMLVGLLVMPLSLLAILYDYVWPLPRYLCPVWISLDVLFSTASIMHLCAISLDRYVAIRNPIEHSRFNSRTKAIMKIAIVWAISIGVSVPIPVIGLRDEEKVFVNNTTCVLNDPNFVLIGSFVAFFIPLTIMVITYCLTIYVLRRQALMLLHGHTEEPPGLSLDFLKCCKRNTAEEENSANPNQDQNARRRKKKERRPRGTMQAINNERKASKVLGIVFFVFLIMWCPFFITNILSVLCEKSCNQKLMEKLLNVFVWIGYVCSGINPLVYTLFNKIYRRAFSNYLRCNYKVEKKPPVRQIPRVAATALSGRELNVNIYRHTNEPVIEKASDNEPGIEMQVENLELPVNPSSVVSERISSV

[1] = Table 4, at least three replicate trials
[2] = Table 4, relative to 4-hydroxytryptamine, at least three replicate trials, read-out: 5-HT2A BRET EC50
[3] = Table 4, efficacy relative to 4-hydroxytryptamine, at least three replicate trials
[4] = Table 4, relative to 4-hydroxytryptamine, at least three replicate trials, read-out: 5-HT2C BRET EC50
[5] = Table 4, relative to 4-hydroxytryptamine, at least three replicate trials

T2 sequence (P28223 whole entry): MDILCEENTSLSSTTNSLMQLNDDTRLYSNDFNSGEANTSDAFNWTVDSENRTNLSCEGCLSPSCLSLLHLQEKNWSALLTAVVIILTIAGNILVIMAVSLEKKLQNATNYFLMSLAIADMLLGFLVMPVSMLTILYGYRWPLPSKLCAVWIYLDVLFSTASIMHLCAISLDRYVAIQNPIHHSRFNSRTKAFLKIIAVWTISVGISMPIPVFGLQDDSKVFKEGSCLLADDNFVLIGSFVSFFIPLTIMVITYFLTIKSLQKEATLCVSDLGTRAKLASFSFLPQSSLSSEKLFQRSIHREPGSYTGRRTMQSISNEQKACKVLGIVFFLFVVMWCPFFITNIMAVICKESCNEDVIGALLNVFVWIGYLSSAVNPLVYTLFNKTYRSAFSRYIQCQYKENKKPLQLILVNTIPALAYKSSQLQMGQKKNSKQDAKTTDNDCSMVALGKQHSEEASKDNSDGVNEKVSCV
T1 sequence (P41595 whole entry): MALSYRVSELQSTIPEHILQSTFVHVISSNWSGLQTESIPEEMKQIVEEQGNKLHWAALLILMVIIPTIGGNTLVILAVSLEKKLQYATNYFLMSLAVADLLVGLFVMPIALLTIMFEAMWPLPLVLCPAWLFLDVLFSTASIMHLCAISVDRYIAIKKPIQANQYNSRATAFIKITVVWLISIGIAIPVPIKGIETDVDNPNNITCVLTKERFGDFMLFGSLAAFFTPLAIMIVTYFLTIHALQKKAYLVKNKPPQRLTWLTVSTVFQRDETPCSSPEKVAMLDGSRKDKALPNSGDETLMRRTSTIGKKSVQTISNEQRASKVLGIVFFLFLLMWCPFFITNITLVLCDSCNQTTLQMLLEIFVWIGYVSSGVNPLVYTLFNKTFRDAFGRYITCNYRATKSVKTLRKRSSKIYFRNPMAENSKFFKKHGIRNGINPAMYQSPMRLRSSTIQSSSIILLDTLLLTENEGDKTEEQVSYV

Structure (SMILES)	5-HT2B BRET Eff % (5-HT2B receptor)	5-HT2B BRET EC50 (nM) (5-HT2B receptor)	EC50 (5-HT2A receptor)	5-HT2A BRET Eff % (5-HT2A receptor; [1])	5-HT2C BRET Eff % (5-HT2C receptor)	EC50 (5-HT2C receptor)	EC50 (5-HT2B receptor; read-out: 5-HT2B BRET EC50)	EC50 (5-HT2A receptor; [2])	5-HT2C BRET Eff % (5-HT2C receptor; [3])	EC50 (5-HT2C receptor; [4])	EC50 (5-HT2B receptor; 5-HT2B BRET EC50 (nM))	5-HT2A BRET EC50 (nM) (5-HT2A receptor; [5])
COc1ccc(C)c2[nH]cc(CCN(C)C)c12 [Compound 26, [2-(4-Methoxy-7-methylindol-3-yl)ethyl]dimethylamine]	inactive	inactive	95 nM	68%	113%	3.5 nM						
CCc1ccc(O)c2c(CCN(C)C)c[nH]c12 [Compound 9, 3-[2-(Dimethylamino)ethyl]-7-ethylindol-4-ol]	inactive	inactive	154 nM	78%	67%	28 nM						
Cc1ccc(O)c2c(CCN(C)C(C)C)c[nH]c12 [Compound 16, 3-[2-[Isopropyl(methyl)amino]ethyl]-7-methylindol-4-ol]	inactive	inactive	150 nM	77%	103%	53 nM						
Cc1ccc(OP(=O)(O)O)c2c(CCN(C)C)c[nH]c12 [Compound 24]	inactive	inactive	1150 nM	69%	69%	370 nM						
Cc1c(F)cc(O)c2c(CCN(C)C)c[nH]c12 [Compound 33, 3-[2-(Dimethylamino)ethyl]-6-fluoro-7-methylindol-4-ol]	inactive	inactive	20 nM	78%	102%	1.4 nM						
Cc1cc2c(c3c(CCN)c[nH]c13)CCCO2 [Compound 110]	63%			91%			139 nM	277 nM	96%	69 nM		
CN(C)CCc1cn2c3c(cccc13)OCC2 [Compound 135, [2-(2,3-Dihydro-[1,4]oxazino[2,3,4-hi]indol-6-yl)ethyl]dimethylamine Hydrochloride]	42%			76%			10.7 nM	767 nM	96%	9 nM		
CC(C)c1ccc(O)c2c(CCN(C)C)cn(C)c12 [Compound 11, 3-[2-(Dimethylamino)ethyl]-7-isopropyl-1-methylindol-4-ol]	inactive	inactive	1160 nM	66%	88%	22 nM						
Cc1ccc(O)c2c(C[C@H]3CCN3C)c[nH]c12 [Compound 77, 7-Methyl-3-[((S)-1-methylazetidin-2-yl)methyl]indol-4-ol]	41%			69%			57 nM	49 nM	66%	7.3 nM		
Cc1ccc(O)c2c(CCN(C)C)c[nH]c12 [Compound 1, 3-[2-(Dimethylamino)ethyl]-7-methylindol-4-ol]	inactive	inactive	66 nM	72%	79%	6.9 nM						
CN(C)CCc1c[nH]c2cc(F)cc(O)c12 [Compound 36, 3-[2-(Dimethylamino)ethyl]-6-fluoroindol-4-ol]	62%		2.9 nM	92%	93%	1.7 nM					4.2 nM	
COc1cc(F)c(C)c2[nH]cc(CCN(C)C)c12 [Compound 34, [2-(6-Fluoro-4-methoxy-7-methylindol-3-yl)ethyl]dimethylamine]	inactive	inactive	16.9 nM	84%	94%	1.8 nM						
Cc1cccc2c(CCN(C)C)c[nH]c12 [7,N,N-TMT]	36%		232 nM	80%					79%	11.7 nM	74 nM	
CN(C)CCc1c[nH]c2c(CCF)ccc(O)c12 [Compound 8, 3-[2-(Dimethylamino)ethyl]-7-(2-fluoroethyl)indol-4-ol]	inactive	inactive		inactive	56%	3930 nM						inactive
Cc1ccc(OCc2ccc(C(F)(F)F)cc2)c2c(CCN(C)C)c[nH]c12 [Compound 39, Dimethyl[2-[7-methyl-4-[4-(trifluoromethyl)benzyloxy]indol-3-yl]ethyl]amine]	inactive	inactive		90%				7660 nM	81%	131 nM		
NCCc1c[nH]c2cccc(O)c12 [4-hydroxytryptamine, reference compound]	100%			100%	99%	0.35 nM	0.8 nM	2.9 nM				
CCN(C)CCc1c[nH]c2c(C)ccc(O)c12 [Compound 14]	inactive	inactive	82 nM	63%	108%	4.2 nM						
CN(C)CCc1c[nH]c2c(C#N)ccc(O)c12 [Compound 64, 3-[2-(Dimethylamino)ethyl]-4-hydroxyindole-7-carbonitrile]	inactive	inactive	267 nM	49%	79%	88 nM						
CN(C)CCc1c[nH]c2c(CCO)ccc(O)c12 [Compound 7, 3-[2-(Dimethylamino)ethyl]-7-(2-hydroxyethyl)indol-4-ol]	inactive	inactive		81%				75 nM	76%	5.6 nM		
CC(C)c1ccc(O)c2c(CCN(C)C)c[nH]c12 [Compound 10, 3-[2-(Dimethylamino)ethyl]-7-isopropylindol-4-ol]	inactive	inactive	1070 nM	40%	60%	34 nM						
Cc1cc(F)c(O)c2c(CCN(C)C)c[nH]c12 [Compound 30]	8%			64%								
CN(C)CCc1c[nH]c2cccc(O)c12 [psilocin, reference compound]	63%			82%								
Cc1cc(O)c2c(CCN(C)C)c[nH]c2c1 [Compound 37, 3-[2-(Dimethylamino)ethyl]-6-methylindol-4-ol]	41%		59 nM	88%	95%	1.5 nM					189 nM	
CN(C)CCc1c[nH]c2c(C(N)=O)ccc(O)c12 [Compound 65, 3-[2-(Dimethylamino)ethyl]-4-hydroxyindole-7-carboxamide]	inactive	inactive		inactive					69%	9960 nM		inactive
Cc1ccc(O)c2c(CCN(C)C3CC3)c[nH]c12 [Compound 17]	inactive	inactive	12.9 nM	54%	111%	3.2 nM						
